Results from ChEMBL document CHEMBL5500344, “Design, synthesis and biological evaluation of matrine contains benzimidazole derivatives as dual TOPOI and PARP inhibitors for cancer therapy” (Eur J Med Chem, 2024).

How the values were obtained:
HeLa = experiment: Antiproliferative activity against human HeLa cells assessed as inhibition of cell growth incubated for 48 hrs by MTT assay; assay type: functional, cell-based
HGC-27 [1] = experiment: Antitumor activity against human HGC-27 cells xenografted in BALB/c mouse assessed as tumor growth inhibition at 40 mg/kg,ip administrated every other day for 17 days relative to control; assay type: functional; settings: HGC-27, 408 h, time 17 day, read-out: TGI
[2] = Acute toxicity in BALB/c mouse xenografted with human HGC-27 cells assessed as change in body weight at 40 mg/kg,ip administrated every other day for 17 days; assay type: organism-based; settings: in vivo, 408 h, time 17 day
[3] = Acute toxicity in BALB/c mouse xenografted with human HGC-27 cells assessed as venous congestion in spleen at 40 mg/kg,ip administrated every other day for 17 days by hematoxylin and eosin staining method; assay type: organism-based; settings: in vivo, 408 h, time 17 day
A549 = experiment: Antiproliferative activity against human A549 cells assessed as inhibition of cell growth incubated for 48 hrs by MTT assay; assay type: functional, cell-based; settings: A549, 48 h
[4] = Acute toxicity in BALB/c mouse xenografted with human HGC-27 cells assessed as venous congestion in liver at 40 mg/kg,ip administrated every other day for 17 days by hematoxylin and eosin staining method; assay type: organism-based; settings: in vivo, 408 h, time 17 day
HGC-27 [5] = experiment: Antiproliferative activity against human HGC-27 cells assessed as inhibition of cell growth incubated for 48 hrs by MTT assay; assay type: functional, cell-based; settings: HGC-27, 48 h
HepG2 = experiment: Antiproliferative activity against human HepG2 cells assessed as inhibition of cell growth incubated for 48 hrs by MTT assay; assay type: functional, cell-based; settings: HepG2, 48 h
[6] = Acute toxicity in BALB/c mouse xenografted with human HGC-27 cells assessed as increase in mucin secretion of lung at 40 mg/kg,ip administrated every other day for 17 days by hematoxylin and eosin staining method; assay type: organism-based; settings: in vivo, 408 h, time 17 day
[7] = Acute toxicity in BALB/c mouse xenografted with human HGC-27 cells assessed as increase in connective tissue proliferation of kidney at 40 mg/kg,ip administrated every other day for 17 days by hematoxylin and eosin staining method; assay type: organism-based; settings: in vivo, 408 h, time 17 day
HGC-27 [8] = experiment: Induction of apoptosis in human HGC-27 cells assessed as necrotic cells at 2.5 uM incubated for 24 hrs by annexin V-FITC/PI satining based flow cytometry (reference value: 0.13 %); assay type: functional
HGC-27 [9] = experiment: Induction of apoptosis in human HGC-27 cells assessed as late apoptotic cells at 2.5 uM incubated for 24 hrs by annexin V-FITC/PI satining based flow cytometry (reference value: 0.32 %); assay type: functional
HGC-27 [10] = experiment: Induction of cell cycle arrest in human HGC-27 cells assessed as accumulation of cells at G0/G1 phase at 5 uM incubated for 48 hrs by flow cytometry relative to control; assay type: functional
HGC-27 [11] = experiment: Induction of apoptosis in human HGC-27 cells assessed as viable cells at 1.25 uM incubated for 24 hrs by annexin V-FITC/PI satining based flow cytometry (reference value: 95.3 %); assay type: functional; settings: read-out: Activity
HGC-27 [12] = experiment: Induction of apoptosis in human HGC-27 cells at 1.25 uM incubated for 24 hrs by annexin V-FITC/PI satining based flow cytometry relative to control; assay type: functional
[13] = target: T1, DNA topoisomerase 1 (Homo sapiens) (UniProt P11387); experiment: Inhibition of human topoisomerase 1 assessed as relaxation of supercoiled pBR322 plasmid DNA incubated for 10 to 15 mins by EtBr staining based agarose gel electrophoresis method; settings: time 10-15 min
T1 sequence (whole entry): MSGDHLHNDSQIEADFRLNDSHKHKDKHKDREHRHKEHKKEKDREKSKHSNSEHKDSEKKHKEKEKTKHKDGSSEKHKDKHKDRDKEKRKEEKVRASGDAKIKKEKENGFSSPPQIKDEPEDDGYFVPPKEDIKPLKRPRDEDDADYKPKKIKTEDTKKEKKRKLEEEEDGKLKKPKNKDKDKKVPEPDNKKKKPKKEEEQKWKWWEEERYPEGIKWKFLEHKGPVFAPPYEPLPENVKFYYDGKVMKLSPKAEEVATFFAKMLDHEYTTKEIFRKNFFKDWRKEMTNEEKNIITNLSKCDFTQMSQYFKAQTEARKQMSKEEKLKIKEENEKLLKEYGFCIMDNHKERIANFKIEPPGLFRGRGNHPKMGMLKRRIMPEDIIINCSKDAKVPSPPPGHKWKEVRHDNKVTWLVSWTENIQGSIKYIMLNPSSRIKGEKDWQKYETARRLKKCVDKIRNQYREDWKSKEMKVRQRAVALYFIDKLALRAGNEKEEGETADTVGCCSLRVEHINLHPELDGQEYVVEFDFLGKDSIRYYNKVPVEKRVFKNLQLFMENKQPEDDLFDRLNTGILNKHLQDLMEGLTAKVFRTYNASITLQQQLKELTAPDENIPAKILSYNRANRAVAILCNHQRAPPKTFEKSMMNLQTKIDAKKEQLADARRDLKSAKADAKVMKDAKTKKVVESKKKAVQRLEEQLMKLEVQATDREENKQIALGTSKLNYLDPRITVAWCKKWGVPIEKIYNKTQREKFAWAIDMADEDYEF

HGC-27 [14] = experiment: Induction of apoptosis in human HGC-27 cells assessed as early apoptotic cells at 5 uM incubated for 24 hrs by annexin V-FITC/PI satining based flow cytometry (reference value: 4.2 %); assay type: functional
HGC-27 [15] = experiment: Inhibition of colony formation in human HGC-27 cells incubated for 48 hrs by crystal violet staining based microscopic analysis; assay type: functional, cell-based
HGC-27 [16] = experiment: Induction of apoptosis in human HGC-27 cells assessed as upregulation of cleaved caspase-3 expression incubated for 48 hrs by Western blotting analysis; assay type: functional, cell-based
HGC-27 [17] = experiment: Induction of DNA damage in human HGC-27 cells assessed as upregulation of p53 expression incubated for 48 hrs by Western blotting analysis; assay type: functional, cell-based
HGC-27 [18] = experiment: Induction of apoptosis in human HGC-27 cells at 2.5 uM incubated for 24 hrs by annexin V-FITC/PI satining based flow cytometry relative to control; assay type: functional
HGC-27 [19] = experiment: Induction of apoptosis in human HGC-27 cells assessed as upregulation of cleaved PARP expression incubated for 48 hrs by Western blotting analysis; assay type: functional, cell-based
HGC-27 [20] = experiment: Induction of apoptosis in human HGC-27 cells assessed as late apoptotic cells at 5 uM incubated for 24 hrs by annexin V-FITC/PI satining based flow cytometry (reference value: 0.32 %); assay type: functional
HGC-27 [21] = experiment: Induction of apoptosis in human HGC-27 cells assessed as downregulation of PARP expression incubated for 48 hrs by Western blotting analysis; assay type: functional, cell-based
HGC-27 [22] = experiment: Induction of apoptosis in human HGC-27 cells assessed as downregulation of Bcl-2 expression incubated for 48 hrs by Western blotting analysis; assay type: functional, cell-based
HGC-27 [23] = experiment: Inhibition of cell migration in human HGC-27 cells incubated upto 72 hrs by scratch wound healing based microscopic analysis; assay type: functional
HGC-27 [24] = experiment: Induction of apoptosis in human HGC-27 cells assessed as viable cells at 5 uM incubated for 24 hrs by annexin V-FITC/PI satining based flow cytometry (reference value: 95.3 %); assay type: functional; settings: read-out: Activity
[25] = target: Poly [ADP-ribose] polymerase 1 (Homo sapiens, UniProt P09874); experiment: Inhibition of PARP-1 (unknown origin) incubated for 70 mins by HT universal chemiluminescent assay
Poly [ADP-ribose] polymerase 1, sequence (P09874 whole entry): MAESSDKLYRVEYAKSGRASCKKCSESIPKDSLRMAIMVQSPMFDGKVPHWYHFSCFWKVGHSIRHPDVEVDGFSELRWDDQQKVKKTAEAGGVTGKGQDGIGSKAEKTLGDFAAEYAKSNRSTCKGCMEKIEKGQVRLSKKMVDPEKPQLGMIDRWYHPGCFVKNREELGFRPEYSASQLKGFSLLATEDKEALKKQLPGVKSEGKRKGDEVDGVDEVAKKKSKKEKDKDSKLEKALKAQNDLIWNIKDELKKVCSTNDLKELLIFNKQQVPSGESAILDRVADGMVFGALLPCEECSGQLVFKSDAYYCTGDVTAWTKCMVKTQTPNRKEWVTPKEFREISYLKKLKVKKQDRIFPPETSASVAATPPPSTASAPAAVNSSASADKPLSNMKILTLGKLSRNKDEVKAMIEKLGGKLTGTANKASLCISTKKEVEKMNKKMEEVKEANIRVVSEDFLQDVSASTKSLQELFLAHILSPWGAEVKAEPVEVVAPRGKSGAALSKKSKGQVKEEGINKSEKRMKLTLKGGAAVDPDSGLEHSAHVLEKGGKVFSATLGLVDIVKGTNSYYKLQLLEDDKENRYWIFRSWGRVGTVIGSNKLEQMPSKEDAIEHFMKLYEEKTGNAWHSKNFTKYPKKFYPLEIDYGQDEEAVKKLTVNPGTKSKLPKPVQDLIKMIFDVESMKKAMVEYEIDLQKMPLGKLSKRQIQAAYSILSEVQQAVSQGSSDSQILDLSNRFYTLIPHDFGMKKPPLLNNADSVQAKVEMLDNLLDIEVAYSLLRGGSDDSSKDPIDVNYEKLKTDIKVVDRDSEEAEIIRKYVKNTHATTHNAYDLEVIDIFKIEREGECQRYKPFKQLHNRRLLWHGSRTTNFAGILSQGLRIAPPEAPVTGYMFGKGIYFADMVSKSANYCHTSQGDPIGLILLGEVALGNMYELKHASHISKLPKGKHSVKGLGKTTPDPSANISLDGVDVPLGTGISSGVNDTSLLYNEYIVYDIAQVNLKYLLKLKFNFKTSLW

HGC-27 [26] = experiment: Induction of apoptosis in human HGC-27 cells assessed as upregulation of Bax expression incubated for 48 hrs by Western blotting analysis; assay type: functional, cell-based
HGC-27 [27] = experiment: Induction of DNA damage in human HGC-27 cells assessed as upregulation of p53 phoshorylation incubated for 48 hrs by Western blotting analysis; assay type: functional, cell-based
HGC-27 [28] = experiment: Induction of cell cycle arrest in human HGC-27 cells assessed as accumulation of cells at G0/G1 phase at 2.5 uM incubated for 48 hrs by flow cytometry relative to control; assay type: functional
HGC-27 [29] = experiment: Induction of apoptosis in human HGC-27 cells assessed as upregulation of caspase-3 expression incubated for 48 hrs by Western blotting analysis; assay type: functional, cell-based
HGC-27 [30] = experiment: Induction of apoptosis in human HGC-27 cells assessed as late apoptotic cells at 1.25 uM incubated for 24 hrs by annexin V-FITC/PI satining based flow cytometry (reference value: 0.32 %); assay type: functional
L02 = experiment: Antiproliferative activity against human L02 cells assessed as inhibition of cell growth incubated for 48 hrs by MTT assay; assay type: functional, cell-based; settings: L02, 48 h
HGC-27 [31] = experiment: Induction of DNA damage in human HGC-27 cells assessed as upregulation of gamma-H2AX expression incubated for 48 hrs by Western blotting analysis; assay type: functional, cell-based
HGC-27 [32] = experiment: Induction of apoptosis in human HGC-27 cells assessed as necrotic cells at 5 uM incubated for 24 hrs by annexin V-FITC/PI satining based flow cytometry (reference value: 0.13 %); assay type: functional
HGC-27 [33] = experiment: Induction of apoptosis in human HGC-27 cells assessed as viable cells at 2.5 uM incubated for 24 hrs by annexin V-FITC/PI satining based flow cytometry (reference value: 95.3 %); assay type: functional; settings: read-out: Activity
HGC-27 [34] = experiment: Induction of apoptosis in human HGC-27 cells assessed as early apoptotic cells at 2.5 uM incubated for 24 hrs by annexin V-FITC/PI satining based flow cytometry (reference value: 4.2 %); assay type: functional
HGC-27 [35] = experiment: Induction of apoptosis in human HGC-27 cells at 5 uM incubated for 24 hrs by annexin V-FITC/PI satining based flow cytometry relative to control; assay type: functional
HGC-27 [36] = experiment: Induction of apoptosis in human HGC-27 cells assessed as early apoptotic cells at 1.25 uM incubated for 24 hrs by annexin V-FITC/PI satining based flow cytometry (reference value: 4.2 %); assay type: functional
HGC-27 [37] = experiment: Induction of cell cycle arrest in human HGC-27 cells assessed as accumulation of cells at G0/G1 phase at 1.25 uM incubated for 48 hrs by flow cytometry relative to control; assay type: functional
HGC-27 [38] = experiment: Induction of apoptosis in human HGC-27 cells assessed as necrotic cells at 1.25 uM incubated for 24 hrs by annexin V-FITC/PI satining based flow cytometry (reference value: 0.13 %); assay type: functional

## O=C1CCC[C@@H]2[C@H]3CCCN4CCC[C@@H](CN12)[C@@H]34 [MATRINE]
HeLa
  IC50: 6750 µM
HGC-27 [1]
  inhibition in vivo at 40 mg/kg: 9.7%
[2]
  Activity: Toxic
[3]
  Activity: Toxic
A549
  IC50: 5880 µM
[4]
  Activity: Toxic
HGC-27 [5]; read-out: IC50
  IC50: 4180 µM
HepG2
  IC50: 4360 µM

## CCc1c2c(nc3ccc(OC(=O)N4CCC(N5CCCCC5)CC4)cc13)-c1cc3c(c(=O)n1C2)COC(=O)[C@]3(O)CC [IRINOTECAN]
HeLa
  IC50: 13.2 µM
HGC-27 [1]
  inhibition in vivo at 40 mg/kg: 87%
[2]
  Activity: Toxic
[6]
  Activity: Toxic
[3]
  Activity: Toxic
A549
  IC50: 6.13 µM
HGC-27 [5]
  IC50: 7.01 µM
[7]
  Activity: Toxic
HepG2
  IC50: 10.8 µM

## O=C(OCC1c2ccccc2-c2ccccc21)N1C[C@@H]2CCCN3CCC[C@@H]([C@H]23)[C@H]1CCCc1nc2cc(Br)c(Br)cc2[nH]1
HGC-27 [8]
  Activity: 0.6%
HeLa
  IC50: 7.21 µM
HGC-27 [9]
  Activity: 7%
HGC-27 [10]
  Activity: 74%
HGC-27 [11]
  viability at 1.25 µM: 80.7%
HGC-27 [12]
  Activity: 15.5%
[13]
  inhibition: Dose-Dependent Effect
HGC-27 [1]
  inhibition in vivo at 40 mg/kg: 75.4%
HGC-27 [14]
  Activity: 72.5%
HGC-27 [15]
  inhibition: Dose-Dependent Effect
HGC-27 [16]
  Activity: Dose-Dependent Effect
HGC-27 [17]
  Activity: Dose-Dependent Effect
HGC-27 [18]
  Activity: 43.1%
HGC-27 [19]
  Activity: Dose-Dependent Effect
HGC-27 [20]
  Activity: 8.01%
HGC-27 [21]
  Activity: Dose-Dependent Effect
[2]
  Activity: Toxic
HGC-27 [22]
  Activity: Dose-Dependent Effect
HGC-27 [23]
  inhibition: Dose-Dependent Effect
HGC-27 [24]
  viability at 5 µM: 18.1%
[25]
  IC50: 0.09 µM
HGC-27 [26]
  Activity: Dose-Dependent Effect
HGC-27 [27]
  Activity: Dose-Dependent Effect
HGC-27 [28]
  Activity: 70%
HGC-27 [29]
  Activity: Dose-Dependent Effect
A549
  IC50: 9.48 µM
HGC-27 [30]
  Activity: 1.79%
L02
  IC50: > 64 µM
HGC-27 [5]; read-out: IC50
  IC50: 2.49 µM
HGC-27 [31]
  Activity: Dose-Dependent Effect
HGC-27 [32]
  Activity: 1.42%
HGC-27 [33]
  viability at 2.5 µM: 51.7%
HGC-27 [34]
  Activity: 40.6%
HGC-27 [35]
  Activity: 76%
HGC-27 [36]
  Activity: 17.2%
HepG2
  IC50: 3.8 µM
HGC-27 [37]
  Activity: 66%
HGC-27 [38]
  Activity: 0.37%
